PubChem BioAssay (NCI)
“And” between values parts separate entries of the source, which are not always exact repeats. Equal values may be shown once.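 These data come from cells grown in 96-well plates and exposed to compound for 48 hours at five concentrations. TGI denotes the concentration required for complete inhibition of growth.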 Where a SMILES comes first, the peptide text is derived from it. The star is where a group is joined. Cbz = O=C(OCc1ccccc1)*

What was measured:
Assay in all cases: NCI-60 cell line screen, 48 h
DLD-1 colon = system: DLD-1 colon
DMS 114 small cell lung = system: DMS 114 small cell lung
DMS 273 small cell lung = system: DMS 273 small cell lung
HCT-116 colon = system: HCT-116 colon
HOP-18 NSCLC = system: HOP-18 NSCLC
KM20L2 colon = system: KM20L2 colon
LXFL 529 NSCLC = system: LXFL 529 NSCLC
M19-MEL melanoma = system: M19-MEL melanoma
NCI-H226 lung = system: NCI-H226 lung
NCI-H522 lung = system: NCI-H522 lung
OVCAR-8 ovarian = system: OVCAR-8 ovarian
RXF-631 renal = system: RXF-631 renal
SN12C renal = system: SN12C renal
SNB-78 CNS = system: SNB-78 CNS
SR leukemia = system: SR leukemia
XF 498 CNS = system: XF 498 CNS

Compound | TGI (DLD-1 colon) [µM] | TGI (DMS 114 small cell lung) [µM] | TGI (DMS 273 small cell lung) [µM] | TGI (HCT-116 colon) | TGI (HOP-18 NSCLC) [µM] | TGI (KM20L2 colon) [µM] | TGI (LXFL 529 NSCLC) [µM] | TGI (M19-MEL melanoma) [µM] | TGI (NCI-H226 lung) [µM] | TGI (NCI-H522 lung) [µM] | TGI (OVCAR-8 ovarian) [µM] | TGI (RXF-631 renal) [µM] | TGI (SN12C renal) [µM] | TGI (SNB-78 CNS) [µM] | TGI (SR leukemia) [µM] | TGI (XF 498 CNS) [µM]
C=C1C(=O)OC2/C=C(\C)C(O)/C=C\C(C)(O)CC(OC(=O)/C(C)=C/C)C12 (stereo not given) | 28.3 | > 78.2 | 37.3 | 30 µM | > 100 | > 38.5 | 29.1 | 37 | > 100 | 26.2 | 50.5 | > 100 | 53.5 | > 100 | 55.7 | > 58.4
CC(=O)c1cccc(NC2C(N)C(NC(=O)N(C)C)(C(C)O)C(C)(O)C2(O)COC(=O)c2c(C)cccc2O)c1 (stereo not given) | – | 0.0855 | – | 0.0437 µM and 0.185 µM | – | 0.372 | 1.01 | 0.203 | 0.00141 | 0.0641 | 0.131 | – | 0.106 | 0.0541 | > 100 | –
CCOC(=O)C12CC1(C(=O)OCC)C1CCC2C1 (stereo not given) | > 100 | > 100 | > 100 | > 100 µM | > 100 | – | > 100 | > 100 | > 100 | – | > 100 | > 100 | > 100 | – | > 100 | –
COc1cc(CC2c3cc(OC)c(OC)cc3CCN2C)c(Oc2cc3c(cc2OC)-c2c(OC)c(OC)c(OC)c4c2C(C3)N(C)CC4)cc1OC (stereo not given) | 29.8 | 26 | 26.2 | 24.3 µM | 31.1 | 17.8 | 27.1 | 28.6 | 32.7 | 24.5 | 32 | – | 28.6 | 34.5 | – | 26.6
COc1ccc2c(c1)CC[C@@H]1C2CC[C@]2(C)C(=O)NC(=O)CC12 (stereo not given in full) | > 100 | – | > 100 | > 100 µM | > 100 | > 100 | > 100 | > 100 | > 100 | > 100 | > 100 | – | > 100 | > 100 | – | > 100
C/C(=N\Nc1ccc([N+](=O)[O-])cc1)C(=O)N(C)Nc1ccccc1 | > 100 | > 100 | > 100 | – | > 100 | > 100 | > 100 | > 100 | > 100 | > 100 | > 100 | – | > 100 | – | > 100 | > 100
CCOC(=O)C(C)(C)Oc1ccc2c(-c3ccc(Cl)cc3)cc(=O)oc2c1 | > 100 | > 100 | > 100 | > 100 µM | – | > 100 | > 100 | > 100 | > 100 | – | > 100 | > 100 | > 100 | – | > 100 | –
CCN(CC)CCCNC(=O)Cc1ccccc1Nc1c(Cl)cccc1Cl | 28.3 | 27.6 | 28.1 | 27.2 µM | – | 12.4 | 21.3 | 17.4 | 38.5 | – | 31.9 | – | 28.5 | 32.8 | 26 | 20.8
O=c1c([Se]c2coc3ccccc3c2=O)coc2ccccc12 | 34 | 31.5 | 24 | 12.3 µM | 29.3 | 26.4 | 28.8 | 28.6 | 28.2 | 32.5 | 25.5 | – | 28.2 | 34.7 | 22.4 | 30.5
O=C1c2cc(CCl)sc2C(=O)c2ccsc21 | 2.16 | 0.298 | 1.12 | 0.39 µM | 0.797 | 2.84 | 0.609 | – | 3.1 | 1.12 | 0.674 | – | 0.842 | 0.746 | 0.571 | 3.1
CCOC(=O)C(C)NC(=O)C(C)NC(=O)C(C)NC(=O)C(C)NC(=O)C(C)NC(=O)C(C)NC(=O)C(C)NC(=O)OCc1ccccc1 (stereo not given) (Cbz-AAAAAAA-OEt; configuration not given here) | – | – | – | > 100 µM | – | – | – | – | > 100 | > 100 | > 100 | – | > 100 | – | > 100 | –
CCOC(=O)c1nc2cc(C(F)(F)F)ccc2nc1Nc1ccc(Cl)c(Cl)c1 | – | – | – | > 100 µM | – | – | – | – | > 100 | > 100 | > 100 | – | > 100 | – | > 100 | –
COc1nc(=O)n(C2CC(N=[N+]=[N-])C(CO)O2)cc1C (stereo not given) | – | – | – | > 100 µM | – | – | – | – | > 100 | > 100 | > 100 | – | > 100 | – | > 100 | –
Cc1ccc(N2C(=O)/C(=C3\Sc4c(nc(C)[nH]c4=O)N3c3ccccc3)SC2=S)cc1 | > 100 | > 100 | > 100 | > 100 µM | – | > 100 | > 100 | > 100 | 86.6 | > 100 | > 100 | – | > 100 | > 100 | – | 51.8
COc1ccc(C2S/C(=C\c3ccc(OC)cc3OC)C(=O)N2NC(=O)Cc2ccccc2)cc1 (stereo not given) | > 100 | > 100 | > 100 | > 100 µM | > 100 | – | > 100 | > 100 | > 100 | > 100 | > 100 | – | > 100 | – | > 100 | –
CC1(C)OCN(c2ccc(Cl)cc2)Cn2c1nc1ccccc12 | > 100 | 53.2 | > 100 | > 100 µM | > 100 | > 100 | > 100 | > 100 | > 100 | > 100 | > 100 | – | > 100 | > 100 | 98.6 | > 100
CC(=O)Nc1ccc(-c2nnc(SCC(=O)Nc3ccc(C)cc3)o2)cc1 | 30.2 | 28.2 | 30.1 | 29.1 µM | 31.3 | 36.5 | 30.5 | 32.9 | 52.4 | 33 | 70.8 | – | 30 | 34.7 | 98.2 | –
